Measurements as given in PubChem BioAssay AID743377 (Vanderbilt Specialized Chemistry Center, 2014).
The source made the active and inactive calls. No rule for the calls is given here.

Biological target: D(2) dopamine receptor (Homo sapiens) (UniProt P14416)
Assay: D2L dopamine receptor antagonism, confirmation, counter-screen for D4 antagonist project, cell-based, D2L isoform, human (AID 743377)
Conditions: D2L-expressing cells, antagonist counterscreen, functional read-out

Chain of D(2) dopamine receptor (Homo sapiens) (P14416 whole entry, looked up, canonical isoform): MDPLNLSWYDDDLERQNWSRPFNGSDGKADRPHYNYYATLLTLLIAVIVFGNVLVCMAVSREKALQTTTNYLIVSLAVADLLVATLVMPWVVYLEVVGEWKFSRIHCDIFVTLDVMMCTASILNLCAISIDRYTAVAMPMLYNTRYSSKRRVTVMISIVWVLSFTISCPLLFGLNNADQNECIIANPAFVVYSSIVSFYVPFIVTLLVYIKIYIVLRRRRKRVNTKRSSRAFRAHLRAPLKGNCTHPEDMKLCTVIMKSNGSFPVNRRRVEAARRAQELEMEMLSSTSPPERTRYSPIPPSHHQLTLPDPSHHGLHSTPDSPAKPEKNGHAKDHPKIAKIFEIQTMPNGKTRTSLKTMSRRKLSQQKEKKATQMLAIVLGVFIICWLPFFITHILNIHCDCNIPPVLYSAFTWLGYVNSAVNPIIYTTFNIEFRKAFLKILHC

IC50: > 20 µM (inactive)
Structure (SMILES): Clc1ccc(CN2CCO[C@H](CCc3ccccc3)C2)cc1
